Molecular target: VR1 (Rattus norvegicus, UniProt O35433)
Assay: Calcium imaging assay: inhibition of capsaicin induced calcium influx in DRG neurons (Fura2, microscope)
Format: cell-based
Set-up: endogenous in cells; host or cells: DRG neurons
Conditions: capsaicin stimulation; class symbols per legend
Experimental: VR1 protein is a heat-gated cation channel that […] resulting in neuronal membrane depolarization and elevated intracellular calcium levels. Therefore the functional activity of compounds at the VR1 receptor may be determined by measuring changes in intracellular calcium levels in neurons such as the dorsal root ganglion.
DRG neurons were grown on PDL coated 96-well black-walled plates, in the presence of DMEM medium containing 5% Penstrep, 5% Glutamax, 200 μg/ml hygromycin, 5 μg/ml blasticide and 10% heat inactivated FBS. Prior to assay, cells were loaded with 5 μg/ml Fura2 in normal saline solution at 37° C for 40 minutes. Cells were then washed with normal saline to remove dye before commencement of the experiment.
The plated neurons were transferred into a chamber on the stage of a Nikon eclipse TE300 microscope after which neurons were allowed to attain a stable fluorescence for about 10 minutes before beginning the experiment. The assay consists of two stages, a pretreatment phase followed by a treatment phase. First, a solution of the test compound was added from a multivalve perfusion system to the cells for 1 minute (pretreatment). Immediately following, capsaicin (250 nM) was added in the presence of the test compound (treatment) for a specific period between 20 and 60 seconds.
Fura2 was excited at […] to indicate relative calcium ion concentration. Changes in wavelength measurements were made throughout the course of the experiment. The fluorescence ratio was calculated by dividing fluorescence measured at 340 nm by that at 380 nM. Data was collected using Intelligent Imaging’s Slidebook software. All compounds that inhibited capsaicin induced calcium influx greater than 75% were considered positives.
Fluorescence reflecting calcium ion influx is reduced.

Sequence of VR1 (O35433 whole entry): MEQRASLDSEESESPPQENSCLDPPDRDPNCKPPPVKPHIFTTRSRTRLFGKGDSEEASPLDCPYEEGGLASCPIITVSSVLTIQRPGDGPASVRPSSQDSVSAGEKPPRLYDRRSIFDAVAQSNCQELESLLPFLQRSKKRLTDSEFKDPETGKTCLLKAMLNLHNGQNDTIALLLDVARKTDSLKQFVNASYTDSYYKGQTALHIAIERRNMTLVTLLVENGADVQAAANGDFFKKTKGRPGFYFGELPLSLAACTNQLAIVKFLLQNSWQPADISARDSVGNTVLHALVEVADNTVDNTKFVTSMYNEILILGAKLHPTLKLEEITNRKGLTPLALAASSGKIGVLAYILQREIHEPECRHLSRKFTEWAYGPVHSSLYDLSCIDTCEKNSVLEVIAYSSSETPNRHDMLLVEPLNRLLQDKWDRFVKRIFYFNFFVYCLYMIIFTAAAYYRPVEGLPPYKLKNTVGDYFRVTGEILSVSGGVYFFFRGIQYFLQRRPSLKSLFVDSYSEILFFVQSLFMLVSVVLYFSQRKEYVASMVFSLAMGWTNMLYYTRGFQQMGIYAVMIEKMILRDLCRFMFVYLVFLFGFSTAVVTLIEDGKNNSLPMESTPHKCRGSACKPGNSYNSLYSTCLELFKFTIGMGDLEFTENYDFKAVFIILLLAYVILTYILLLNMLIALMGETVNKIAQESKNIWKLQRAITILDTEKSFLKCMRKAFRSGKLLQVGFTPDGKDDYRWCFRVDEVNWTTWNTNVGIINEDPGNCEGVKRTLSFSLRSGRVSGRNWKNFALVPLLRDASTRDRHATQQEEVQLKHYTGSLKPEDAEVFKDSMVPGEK

| SMILES | inhibition of calcium ion influx induced by capsaicin stimulation |
| --- | --- |
| COc1cc(CNC(=O)c2ccc(/C(C)=C/C(C)(C)C)cc2)cc(OC)c1OC [Compound 305] | + (compound exhibited 0-25% inhibition of calcium ion influx induced by capsaicin stimulation) |
| C/C(=C\C(C)(C)C)c1ccc(C(=O)NCc2ccccn2)cc1 [Compound 308] | + (compound exhibited 0-25% inhibition of calcium ion influx induced by capsaicin stimulation) |
| C/C(=C\C(C)(C)C)c1ccc(C(=O)Nc2ccccc2O)cc1 [Compound 313] | + (compound exhibited 0-25% inhibition of calcium ion influx induced by capsaicin stimulation) |
| CCNC(=O)c1ccc(/C(C)=C/C(C)(C)C)cc1 [Compound 315] | + (compound exhibited 0-25% inhibition of calcium ion influx induced by capsaicin stimulation) |
| C/C(=C\C(C)(C)C)c1ccc(C(=O)NCc2cccs2)cc1 [Compound 316] | ++ (compound exhibited 25-50% inhibition of calcium ion influx induced by capsaicin stimulation) |
| C/C(=C\C(C)(C)C)c1ccc(C(=O)Nc2cc(C)ccn2)cc1 [Compound 324] | + (compound exhibited 0-25% inhibition of calcium ion influx induced by capsaicin stimulation) |
| COc1ccc(NC(=O)c2ccc(/C(C)=C/C(C)(C)C)cc2)cc1Cl [Compound 330] | + (compound exhibited 0-25% inhibition of calcium ion influx induced by capsaicin stimulation) |
| C/C(=C\C(C)(C)C)c1ccc(C(=O)Nc2ccc(C(F)(F)F)cc2)cc1 [Compound 331] | +++ (compound exhibited 50-75% inhibition of calcium ion influx induced by capsaicin stimulation) |
| C/C(=C\C(C)(C)C)c1ccc(C(=O)Nc2cccc(C#N)c2)cc1 [Compound 332] | +++ (compound exhibited 50-75% inhibition of calcium ion influx induced by capsaicin stimulation) |
| C/C(=C\C(C)(C)C)c1ccc(C(=O)Nc2ccc(C(C)(C)C)cc2)cc1 [Compound 334] | +++ (compound exhibited 50-75% inhibition of calcium ion influx induced by capsaicin stimulation) |
| CCCCc1ccc(NC(=O)c2ccc(/C(C)=C/C(C)(C)C)cc2)cc1 [Compound 336] | ++ (compound exhibited 25-50% inhibition of calcium ion influx induced by capsaicin stimulation) |
| COc1cc(NC(=O)c2ccc(/C(C)=C/C(C)(C)C)cc2)cc(C(F)(F)F)c1 [Compound 337] | + (compound exhibited 0-25% inhibition of calcium ion influx induced by capsaicin stimulation) |
| C/C(=C\C(C)(C)C)c1ccc(C(=O)Nc2ccc(C)cc2C)cc1 [Compound 338] | + (compound exhibited 0-25% inhibition of calcium ion influx induced by capsaicin stimulation) |
| C/C(=C\C(C)(C)C)c1ccc(C(=O)Nc2ccncn2)cc1 [Compound 341] | + (compound exhibited 0-25% inhibition of calcium ion influx induced by capsaicin stimulation) |
| C/C(=C\C(C)(C)C)c1ccc(C(=O)Nc2ccc(C(F)(F)F)cn2)cc1 [Compound 344] | + (compound exhibited 0-25% inhibition of calcium ion influx induced by capsaicin stimulation) |
| C/C(=C\C(C)(C)C)c1ccc(C(=O)Nc2ncc(C(F)(F)F)cc2Cl)cc1 [Compound 345] | + (compound exhibited 0-25% inhibition of calcium ion influx induced by capsaicin stimulation) |
| C/C(=C\C(C)(C)C)c1ccc(C(=O)NCCc2cnc[nH]2)cc1 [Compound 356] | + (compound exhibited 0-25% inhibition of calcium ion influx induced by capsaicin stimulation) |
| C/C(=C\C(C)(C)C)c1ccc(C(=O)NCc2cccnc2)cc1 [Compound 357] | + (compound exhibited 0-25% inhibition of calcium ion influx induced by capsaicin stimulation) |
| C/C(=C/C(C)(C)C)c1ccc(C(=O)Nc2ccc3ccccc3c2)cc1 [Compound 358] | ++++ (compound exhibited 75% or greater inhibition of calcium ion influx induced by capsaicin stimulation) |
| CC(C)(C)C#Cc1ccc(C(=O)Nc2ccc3c(c2)OCO3)cc1 [Compound 361] | ++++ (compound exhibited 75% or greater inhibition of calcium ion influx induced by capsaicin stimulation) |
| CCN(CC)CCOC(=O)c1ccc(NC(=O)c2ccc(C#CC(C)(C)C)cc2)cc1 [Compound 363] | +++ (compound exhibited 50-75% inhibition of calcium ion influx induced by capsaicin stimulation) |

| SMILES | inhibition of calcium ion influx induced by capsaicin stimulation |
| --- | --- |
| COc1cccc(NC(=O)c2ccc(C#CC(C)(C)C)cc2)c1 [Compound 364] | ++++ (compound exhibited 75% or greater inhibition of calcium ion influx induced by capsaicin stimulation) |
| CC(C)(C)C#Cc1ccc(C(=O)Nc2ccc(Cl)cc2)cc1 [Compound 365] | + (compound exhibited 0-25% inhibition of calcium ion influx induced by capsaicin stimulation) |
| COc1ccc(NC(=O)c2ccc(C#CC(C)(C)C)cc2)cc1Cl [Compound 366] | ++ (compound exhibited 25-50% inhibition of calcium ion influx induced by capsaicin stimulation) |
| CC(C)(C)C#Cc1ccc(C(=O)Nc2ccc(C(F)(F)F)cc2)cc1 [Compound 367] | ++ (compound exhibited 25-50% inhibition of calcium ion influx induced by capsaicin stimulation) |
| CC(C)(C)C#Cc1ccc(C(=O)Nc2ccc(Cl)c(C(F)(F)F)c2)cc1 [Compound 368] | ++++ (compound exhibited 75% or greater inhibition of calcium ion influx induced by capsaicin stimulation) |
| COc1cc(NC(=O)c2ccc(C#CC(C)(C)C)cc2)cc(C(F)(F)F)c1 [Compound 372] | ++++ (compound exhibited 75% or greater inhibition of calcium ion influx induced by capsaicin stimulation) |
| CC(C)(C)C#Cc1ccc(C(=O)Nc2ccc3c(c2)OCCO3)cc1 [Compound 373] | ++++ (compound exhibited 75% or greater inhibition of calcium ion influx induced by capsaicin stimulation) |
| CC(C)(C)C#Cc1ccc(C(=O)Nc2cccc(C(F)(F)F)c2)cc1 [Compound 374] | ++++ (compound exhibited 75% or greater inhibition of calcium ion influx induced by capsaicin stimulation) |
| CC(C)Oc1cccc(NC(=O)c2ccc(C#CC(C)(C)C)cc2)c1 [Compound 376] | +++ (compound exhibited 50-75% inhibition of calcium ion influx induced by capsaicin stimulation) |
| CC(C)(C)C#Cc1ccc(C(=O)Nc2ccc(S(C)(=O)=O)cc2)cc1 [Compound 377] | ++++ (compound exhibited 75% or greater inhibition of calcium ion influx induced by capsaicin stimulation) |
| CC(C)(C)C#Cc1ccc(C(=O)Nc2cccc3cnccc23)cc1 [Compound 378] | ++++ (compound exhibited 75% or greater inhibition of calcium ion influx induced by capsaicin stimulation) |
| CC(C)(C)C#Cc1ccc(C(=O)Nc2cnc3ccccc3c2)cc1 [Compound 379] | ++++ (compound exhibited 75% or greater inhibition of calcium ion influx induced by capsaicin stimulation) |
| CCN(CC)c1ccc(NC(=O)c2ccc(C#CC(C)(C)C)cc2)cc1 [Compound 380] | ++ (compound exhibited 25-50% inhibition of calcium ion influx induced by capsaicin stimulation) |
| CC(C)(C)C#Cc1ccc(C(=O)Nc2ccc(Br)cn2)cc1 [Compound 382] | ++ (compound exhibited 25-50% inhibition of calcium ion influx induced by capsaicin stimulation) |
| CC(C)(C)C#Cc1ccc(C(=O)Nc2ccc(C(F)(F)F)cn2)cc1 [Compound 383] | +++ (compound exhibited 50-75% inhibition of calcium ion influx induced by capsaicin stimulation) |
| CC(C)(C)C#Cc1ccc(C(=O)Nc2ccc(Cl)nc2)cc1 [Compound 384] | ++++ (compound exhibited 75% or greater inhibition of calcium ion influx induced by capsaicin stimulation) |
| COc1ccc(NC(=O)c2ccc(C#CC(C)(C)C)cc2)cn1 [Compound 385] | ++++ (compound exhibited 75% or greater inhibition of calcium ion influx induced by capsaicin stimulation) |
| Cn1ccc2cc(NC(=O)c3ccc(C#CC(C)(C)C)cc3)ccc21 [Compound 387] | ++++ (compound exhibited 75% or greater inhibition of calcium ion influx induced by capsaicin stimulation) |
| COc1cccc(NC(=O)c2ccc(/C=C/C(F)(F)F)cc2)c1 [Compound 389] | ++++ (compound exhibited 75% or greater inhibition of calcium ion influx induced by capsaicin stimulation) |
| O=C(Nc1ccc(Cl)cc1)c1ccc(/C=C/C(F)(F)F)cc1 [Compound 390] | ++ (compound exhibited 25-50% inhibition of calcium ion influx induced by capsaicin stimulation) |

Source: patent US20050222200A1, “AMIDE DERIVATIVES AS ION CHANNEL LIGANDS AND PHARMACEUTICAL COMPOSITIONS AND METHODS OF USING THE SAME” (Renovis, Inc., priority 2003, published 2005)
